Reference: patent US10081632B2, “Substituted tetrahydropyrido[3′,2′:4,5]pyrrolo[1,2-α]pyrazine-2-carboxamides as RSK inhibitors” (Phoenix Molecular Designs, priority 2016, dated 2018)
Entries after “also recorded” stand apart in the source; their conditions may differ. Structures can show the parent of a compound that is named as a salt.

Tests used:
4T1 cells [1] = experiment: Monolayer growth inhibition, crystal violet assay; type: cell-based; details: Mus musculus; 4T1 (TNBC), 5 days, single dose on day 1
Source text: (§1) In all instances a single dose was given on day 1 of the experiment.

SUM149 cells [2] = experiment: Monolayer growth inhibition, crystal violet assay; type: cell-based; details: Homo sapiens; SUM149 (TNBC, BRCA Mutant), 5 days, single dose on day 1
Source text: as §1

SUM149-PTXR cells [3] = experiment: Monolayer growth inhibition, crystal violet assay; type: cell-based; details: Homo sapiens; SUM149-PTXR (TNBC, BRCA Mutant), 5 days, single dose on day 1
Source text: as §1

HCC1143 cells [4] = experiment: Monolayer growth inhibition, crystal violet assay; type: cell-based; details: Homo sapiens; HCC1143 (TNBC), 5 days, single dose on day 1
Source text: as §1

PC3 cells [5] = experiment: Monolayer growth inhibition, crystal violet assay; type: cell-based; details: Homo sapiens, PC-3; PC3 (Prostate), 5 days, single dose on day 1
Source text: as §1

MDA-MB-231 cells [6] = experiment: Monolayer growth inhibition, crystal violet assay; type: cell-based; details: Homo sapiens; MDA-MB-231 (TNBC), 5 days, single dose on day 1
Source text: as §1

MDA-MB-435 cells [7] = experiment: Monolayer growth inhibition, crystal violet assay; type: cell-based; details: Homo sapiens; MDA-MB-435 (Melanoma), 5 days, single dose on day 1
Source text: as §1

T47D cells [8] = experiment: Monolayer growth inhibition, crystal violet assay; type: cell-based; details: Homo sapiens; T47D (ER/PR), 5 days, single dose on day 1
Source text: (§2) In all instances a single dose was given on day 1 of the experiment. […] Complete (100%) growth suppression was achievable with several of the compounds in multiple different cell lines.

HCC1937 cells [9] = experiment: Monolayer growth inhibition, crystal violet assay; type: cell-based; details: Homo sapiens; HCC1937 (TNBC, BRCA Mutant), 5 days, single dose on day 1
Source text: as §2

JIMT-1 cells [10] = experiment: Monolayer growth inhibition, crystal violet assay; type: cell-based; details: Homo sapiens; JIMT-1 (HER2), 5 days, single dose on day 1
Source text: as §2

MDA-MB-468 cells [11] = experiment: Monolayer growth inhibition, crystal violet assay; type: cell-based; details: Homo sapiens; MDA-MB-468 (TNBC), 5 days, single dose on day 1
Source text: as §2

4T1 cells [12] = experiment: Soft agar growth inhibition assay; type: cell-based; details: Mus musculus
Experimental: Two agar (Alfa Aesar) solutions (0.8% w/v and 0.4% w/v) were prepared in ultrapure water. The 0.8% agar solution was mixed in equal volumes with 2× media previously prepared from powder (Life Technologies) following the manufacturer's instructions and filter sterilized. The 0.8% agar and media solution was added to 24 well plates (Mandel Scientific) at 500 μl per well. The plates were placed in a humidified incubator at 37° C. with 5% CO2. Next, the 0.4% agar solution was mixed in equal volumes with 2× media. Breast cancer cell lines were added to this solution to achieve a final concentration of 2×10^4 cells per well and […] was added to each well on top of the bottom agar and media layer. […] The plates were returned to the incubator for 10-32 days, with a re-dosing of compounds or DMSO every 7 days. After 10-32 days, colonies were counted in 3 different fields of view for each well.
Representative compounds described herein were tested in the soft agar growth inhibition assay against the 4T1 breast cancer cell line.

4T1 cells [13] = experiment: Monolayer growth inhibition, Alamar blue assay; type: cell-based; details: Mus musculus; 4T1 (TNBC), 5 days, single dose on day 1
Source text: as §1

SUM149 cells [14] = experiment: Monolayer growth inhibition, Alamar blue assay; type: cell-based; details: Homo sapiens; SUM149 (TNBC, BRCA Mutant), 5 days, single dose on day 1
Source text: as §1

HCC1937 cells [15] = experiment: Monolayer growth inhibition, Alamar blue assay; type: cell-based; details: Homo sapiens; HCC1937 (TNBC, BRCA Mutant), 5 days, single dose on day 1
Source text: as §1

JIMT-1 cells [16] = experiment: Monolayer growth inhibition, Alamar blue assay; type: cell-based; details: Homo sapiens; JIMT-1 (HER2), 5 days, single dose on day 1
Source text: as §1

HCC1143 cells [17] = experiment: Monolayer growth inhibition, Alamar blue assay; type: cell-based; details: Homo sapiens; HCC1143 (TNBC), 5 days, single dose on day 1
Source text: as §1

PC3 cells [18] = experiment: Monolayer growth inhibition, Alamar blue assay; type: cell-based; details: Homo sapiens, PC-3; PC3 (Prostate), 5 days, single dose on day 1
Source text: as §1

MDA-MB-231 cells [19] = experiment: Monolayer growth inhibition, Alamar blue assay; type: cell-based; details: Homo sapiens; MDA-MB-231 (TNBC), 5 days, single dose on day 1
Source text: as §1

MDA-MB-435 cells [20] = experiment: Monolayer growth inhibition, Alamar blue assay; type: cell-based; details: Homo sapiens; MDA-MB-435 (Melanoma), 5 days, single dose on day 1
Source text: as §1

MDA-MB-468 cells [21] = experiment: Monolayer growth inhibition, Alamar blue assay; type: cell-based; details: Homo sapiens; MDA-MB-468 (TNBC), 5 days, single dose on day 1
Source text: as §1

All cell lines [22] = experiment: Monolayer growth inhibition, Alamar blue assay, range over all cell lines; type: cell-based; details: 120 h; range of IC50 over all cell lines of the table; read-out: IC50 Values - Alamar Blue (5 Days), Range, All
Source text: as §1

[23] = system: phosphorylated Y-box binding protein-1 (YB-1) at serine 102 (P-YB-1S102); experiment: Immunoblotting of cell signalling, loss of P-YB-1 in MDA-MB-231 cells; details: MDA-MB-231 cells, 0.01-1 uM, 96 hrs
Experimental: Following desired experimental conditions, breast cancer cell lines grown and treated in 6 well plates or 100 mm culture dishes (Grenier Bio-One) were placed on ice and the supernatant from each well was removed and the cells were washed in cold PBS. Following removal of PBS, cells were exposed to radioimmunoprecipitation assay (RIPA) buffer (50 mM Tris-HCl (pH 8), 150 mM NaCl, 1% NP-40, 0.5% sodium deoxycholate, 0.1% SDS; Fisher Scientific) supplemented with 1% phosphatase inhibitor (Fisher Scientific) and 1% protease inhibitor (Fisher Scientific) for 10 minutes. Samples were transferred to eppendorf tubes, vortexed and then centrifuged at 14 000 rpm for 10 minutes. Supernatants were collected as whole cell lysates.
To begin, the protein content of the lysates was measured using the Bicinchoninic Acid (BCA) Protein Assay Kit (Pierce), which included a protein standard curve generated with bovine serum albumin. Appropriate volumes of samples and loading buffer (50 mM Tris-HCl (pH 6.8), 2% SDS, 10% glycerol, 1% j-mercaptoethanol, 12.5 mM EDTA, 0.02% bromophenol blue) were mixed, ensuring that equal amounts of protein were loaded. For the majority of experiments in this study, 30 μg of protein per well was loaded. Samples were then resolved on SDS-PAGE (polyacrylamide gel electrophoresis) using various percentages of acrylamide gels (8%-12%), depending on the proteins of interest. SDS-PAGE was run in SDS running buffer (25 mM Tris, 192 mM glycine, 0.1% SDS) and then transferred to nitrocellulose membranes (Bio-Rad) in transfer buffer (48 mM Tris, 39 mM glycine, 20% (v/v) methanol) at 100 volts for 90 minutes at room temperature. Immunoblots were then blocked in 5% skim milk in tris-buffered saline with 0.1% Tween-20 (TBS-T; 50 mM Tris-HCl, pH 7.5, 150 mM NaCl, 0.1% (v/v) Tween-20 (Fisher Scientific)) for 1 to 2 hours. Immunoblots were then incubated with selected primary antibodies diluted in TBS-T with 0.1% gelatin (Bio-Rad) and 0.05% sodium azide (Alfa Aesar) overnight. Following washes with TBT-T 4 times for 8 to 10 minutes, immunoblots were incubated with appropriate secondary antibodies conjugated to horseradish peroxidise (Cell Signalling Technology) diluted in TBS-T plus 5% skim milk at a ratio of 1:5000 for 2 hours at room temperature. After an additional round of washes in TBS-T, immunoblots were exposed to combined enhanced chemiluminescence (ECL) reagents (Fisher Scientific) for 1 minute and developed using ChemiDoc MP Imaging System (Bio-Rad). For certain immunoblots, bands of proteins of interest were scanned and band intensity ratios were determined by densitometric analysis (ImageJ). […] Total YB-1 was used as a loading control (1:5000 Abcam). […] To assess whether cells are actively undergoing cell death, the activity of poly ADP ribose polymerase (PARP) (1:1000 CST) was also measured using the immunoblotting method.

CD34+ cells = experiment: Colony forming unit hematopoietic stem cell assay; type: cell-based, human; details: for IC50: Homo sapiens, Hematopoietic stem cell, CD34+ cells from peripheral blood, read-out: CD34+ (PB) IC50; for Therapeutic Window: ratio IC50 against CD34+ cells and MDA-MB-231 cells (SA)
Experimental: The hematopoietic colony forming cell assay was conducted based on a protocol outlined by StemCell Technologies. […] Following the addition of CD34^+ cells isolated from human cord blood or peripheral blood (StemCell Technologies) at a final concentration of 5×10^2 cells per dish, the tubes were vortexed and allowed to stand for 5 minutes at room temperature. Next, the MethoCult mixtures were dispensed into 35 mm dishes (Corning Incorporated) through blunt end needles (StemCell Technologies) and 5 ml syringes (BD Biosciences) at a volume of 1.1 ml per dish. The medium was evenly distributed across the surface of each dish by gentle tilting and rotation. The dishes were then placed in a 100 mm culture dish (Grenier Bio-One) containing additional 35 mm dishes with sterile water to maintain humidity. […] The number of myeloid and erythroid derived colonies in both the treated and control dishes were counted and compared.

T47D cells [24] = experiment: Monolayer growth inhibition, Alamar blue assay; type: cell-based, Human; details: Homo sapiens; T47D (ER/PR), 5 days, single dose on day 1
Source text: as §1

SUM149-PTXR cells [25] = experiment: Monolayer growth inhibition, Alamar blue assay; type: cell-based, Human; details: Homo sapiens; SUM149-PTXR (TNBC, BRCA Mutant), 5 days, single dose on day 1
Source text: as §1

MDA-MB-231 cells [26] = experiment: Immuno-oncology gene expression (HLA-DRA, CIITA, CD274 mRNA); type: cell-based, Human; details: Compound 16 2 or 4 uM, Compound 18 1, 2, or 4 uM
Source text: A key feature of cancer is low immunogenicity. This can occur by several mechanisms that allow the cells to escape immune recognition. […] HLA-DRA is a member of MHC-II genes and CIITA is the master regulator of MHC II transcription. Thus it was surprising that CIITA, which would be expected to regulate MHC II gene expression, was not altered by RSK inhibition. […] HLA-DRA is important for immune recognition while PD-L1 is involved in immune checkpoints.

All cell lines [27] = experiment: Monolayer growth inhibition, crystal violet assay, range over all cell lines; type: cell-based; details: 120 h; range of IC50 over all cell lines of the table; read-out: IC50 Values - Crystal Violet (5 Days), Range, All
Source text: as §2

MDA-MB-231 cells [28] = experiment: Soft agar growth inhibition assay; type: cell-based; details: Homo sapiens
MDA-MB-468 cells [29] = experiment: Soft agar growth inhibition assay; type: cell-based, Human; details: Homo sapiens; MDA-MB-468 (TNBC), 14-22 days
[30] = system: P-YB-1 in MDA-MB-231 xenografts; experiment: Pharmacodynamics, P-YB-1 signalling in MDA-MB-231 xenograft tumors (immunoblotting); details: 100 mg/kg BID PO for three days
Experimental: Following desired experimental conditions, breast cancer cell lines grown and treated in 6 well plates or 100 mm culture dishes (Grenier Bio-One) were placed on ice and the supernatant from each well was removed and the cells were washed in cold PBS. Following removal of PBS, cells were exposed to radioimmunoprecipitation assay (RIPA) buffer (50 mM Tris-HCl (pH 8), 150 mM NaCl, 1% NP-40, 0.5% sodium deoxycholate, 0.1% SDS; Fisher Scientific) supplemented with 1% phosphatase inhibitor (Fisher Scientific) and 1% protease inhibitor (Fisher Scientific) for 10 minutes. Samples were transferred to eppendorf tubes, vortexed and then centrifuged at 14 000 rpm for 10 minutes. Supernatants were collected as whole cell lysates. For mouse tumour tissues, each sample was place in a 35 mm culture dish with complete RIPA lysis buffer. […]
To begin, the protein content of the lysates was measured using the Bicinchoninic Acid (BCA) Protein Assay Kit (Pierce), which included a protein standard curve generated with bovine serum albumin. […] For certain immunoblots, bands of proteins of interest were scanned and band intensity ratios were determined by densitometric analysis (ImageJ). […] To assess whether cells are actively undergoing cell death, the activity of poly ADP ribose polymerase (PARP) (1:1000 CST) was also measured using the immunoblotting method.
Cell signalling was evaluated by immunoblotting. […]

[31] = Solubility assessment, 20 mg/ml solution; type: physicochemical; details: hydrochloride salt
In short: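 Compounds from 100 mM DMSO stocks diluted to 20 mg/ml in DMEM with FBS and penicillin/streptomycin, vortexed and checked visually for precipitate. One compound instead diluted to 20 mg/ml in phosphate-buffered saline, solution pH 2.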

MDA-MB-231 cells [32] = experiment: Combination with paclitaxel, monolayer growth (crystal violet); details: MDA-MB-231 cells + 0.3 nM PTX, 5 days
Experimental: 1×10^3 cells per well were seeded for a final volume of 200 μl per well and plates were incubated for 5 days at 37° C. in a humidified incubator with 5% CO2. Following the incubation period, cell survival was quantified by Alamar blue assay (Life Technologies). Briefly, media from each well was replaced with 100 μl of phosphate buffer saline (PBS, Life Technologies) and cells were incubated with 5% Alamar blue, which incorporates a propriety redox indicator that changes colour in response to metabolic activity, for up to 2 hours. During this period of incubation, the absorbance at 570 nm and 600 nm was measured at various time points, depending on the cell line or sample. Percent survival was calculated by comparing the absorbance ratio of the test well to the control well multiplied by 100%, as indicated in the following formula:
Following, plates were prepared for crystal violet staining. To begin, 100 μl of an 8% formaldehyde (Alfa Aesar) solution diluted in PBS was added to each well and plates were stored at 4° C. overnight. Next, the formaldehyde solution was discarded and the wells were washed with 200 μl ultrapure water per well three times. Following, 50 μl of a 0.5% crystal violet solution (0.5% w/v crystal violet (Alfa Aesar), 25% methanol (VWR)) was added to each well and incubated at room temperature for 20 minutes. The crystal violet solution was discarded and wells were washed with 200 μl ultrapure water per well three times. Next, 50 μl of a 5% sodium dodecyl sulphate (SDS) (Alfa Aesar) was added to each well and the absorbance at 590 nm was measured.

[33] = MDA-MB-231, growth in soft agar (SA), read-out: MDA-MB-231 IC50 (SA)
[34] = MDA-MB-231 (TNBC), 14-22 days, read-out: IC50 Values - Soft Agar (14-22 Days)

Compound | IC50 (T47D cells [8]) [µM] | IC50 (HCC1937 cells [9]) [µM] | IC50 (JIMT-1 cells [10]) [µM] | IC50 (MDA-MB-468 cells [11]) [µM] | IC50 (SUM149 cells [14]) [µM] | IC50 (HCC1937 cells [15]) [µM] | IC50 (JIMT-1 cells [16]) [µM] | IC50 (HCC1143 cells [17]) [µM] | IC50 (PC3 cells [18]) [µM] | IC50 (MDA-MB-435 cells [20]) [µM] | IC50 (CD34+ cells) [µM] | Therapeutic Window (CD34+ cells) [X] | IC50 (T47D cells [24]) [µM] | IC50 (SUM149-PTXR cells [25]) [µM] | IC50 (MDA-MB-231 cells [28]; [33]) [µM] | IC50 (MDA-MB-231 cells [28]; [34]) [µM] | other results
C[C@@H]1CNC(=O)c2cc3ccc(C(=O)Nc4cnn(Cc5cccc(N)c5)c4)nc3n21 [Compound 16, (R)—N-(1-(3-aminobenzyl)-1H-pyrazol-4-yl)-9-methyl-6-oxo-6,7,8,9-tetrahydropyrido[3′,2′:4,5]pyrrolo[1,2-a]pyrazine-2-carboxamide] | 3.8 ± 0.7 | 12 ± 5.3 | 13.3 ± 2.4 | 1.9 ± 0.3 | 3.4 ± 1.8 | 17.4 ± 3 | 16.3 ± 1 | 7 ± 3 | 6.6 ± 2.3 | 0.9 ± 0.5 | > 20 | >100 | 4.7 ± 1.7 | 2.5 ± 0.4 | 0.2 | 0.2 ± 0.1 | IC50 (4T1 cells [1]): 4.5 ± 0.8 µM; IC50 (SUM149 cells [2]): 2.8 ± 0.9 µM; IC50 (SUM149-PTXR cells [3]): 3.5 ± 1.2 µM; IC50 (HCC1143 cells [4]): 5 ± 1.1 µM; IC50 (PC3 cells [5]): 3.7 ± 1.3 µM; IC50 (MDA-MB-231 cells [6]): 2.7 ± 1.3 µM; IC50 (MDA-MB-435 cells [7]): 1.2 ± 0.6 µM; IC50 (4T1 cells [12]; 240 h, 4T1, 10 days, read-out: IC50 Values, 10 Days, Soft Agar): 3.3 µM; IC50 (4T1 cells [12]; 4T1 (TNBC), 14-22 days, read-out: IC50 Values - Soft Agar (14-22 Days)): 3.5 ± 0.3 µM; IC50 (4T1 cells [13]): 5.4 ± 0.9 µM; IC50 (MDA-MB-231 cells [19]): 8.7 ± 1.8 µM; IC50 (MDA-MB-468 cells [21]): 2.7 ± 0.5 µM; IC50 (All cell lines [22]): 0.9 to 17.4 µM; Loss of P-YB-1 [23]: dose dependent loss of P-YB-1; CD274 (gene encoding PD-L1) levels (MDA-MB-231 cells [26]): reduced levels of CD274; HLA-DRA mRNA (MDA-MB-231 cells [26]): elevated levels of HLA-DRA mRNA; mRNA expression of CIITA (MDA-MB-231 cells [26]): little effect; IC50 (All cell lines [27]): 1.2 to 13.3 µM; IC50 (MDA-MB-468 cells [29]): 1.1 ± 0.3 µM
C[C@@H]1CNC(=O)c2cc3ccc(C(=O)Nc4cnn(Cc5ccc(N)cc5)c4)nc3n21 [Compound 25, (R)—N-(1-(4-aminobenzyl)-1H-pyrazol-4-yl)-9-methyl-6-oxo-6,7,8,9-tetrahydropyrido[3′,2′:4,5]pyrrolo[1,2-a]pyrazine-2-carboxamide hydrochloride salt] | 3.1 ± 0.1 | 8.4 ± 1.9 | 15.2 ± 2.6 | 2 ± 0.4 | 10.4 ± 3.5 | 13.7 ± 3.8 | 19.9 ± 6.5 | 5.1 ± 0.3 | 8.5 ± 0.8 | 0.9 ± 0.1 | > 20 |  | 8.9 ± 0.8 | 5.2 ± 4.2 | 0.2 | 0.2 ± 0.1 | Tumors with reduced cell signaling through loss of P-YB-1 [30]: 3/3; Solubility, 20 mg/ml Solution ([31]; 100 mM in DMSO diluted in DMEM growth media to 20 mg/ml): Soluble; also recorded: superior solubility; pH of 20 mg/ml solution ([31]; DMSO stock diluted in DMEM, pH test strips): 2; Therapeutic Window (CD34+ cells; hydrochloride salt): >100X
CC(=O)O[C@H]1C(=O)[C@@]2(C)[C@H]([C@H](OC(=O)c3ccccc3)[C@]3(O)C[C@H](OC(=O)[C@H](O)[C@@H](NC(=O)c4ccccc4)c4ccccc4)C(C)=C1C3(C)C)[C@]1(OC(C)=O)CO[C@@H]1C[C@@H]2O [Taxol, paclitaxel, reference compound] |  |  |  |  |  |  |  |  |  |  | 0.0097 | 6.9 |  |  | 0.0014 |  | % Survival (MDA-MB-231 cells [32]): MDA-MB-231 cells + 0.3 nM PTX: % Survival = 47.7%
